These results are taken from PMC11748620, “Evaluation of maSSS/maSES-PEG2-RM26 for their potential therapeutic use after labeling with Re-188. Could their [^99mTc]Tc-labeled counterparts be used to estimate dosimetry?” (EJNMMI Radiopharmacy and Chemistry, 2025).

The data set relates to PC-3 xenografts. The data set is described as follows: Ex vivo biodistribution in PC-3 xenograft bearing mice. Set-up: species or system BALB/C nu/nu mice. Conditions: mice bearing PC-3 xenografts, 4 h pi. From the text:
Animal studies were in compliance with the European guidelines for laboratory animal protection. BALB/C nu/nu mice were used and the experimental protocols were approved by the ethics committee for animal research in Uppsala (Sweden); permit number 00473/21.
The biodistribution profiles and tumor targeting of maSSS-/SES-PEG2-RM26, labeled with Re-188 or Tc-99 m, were compared head-to-head in the same batch of animals, inoculated with the same PC-3 cells-suspension. After acclimatization, animals were inoculated subcutaneously (right hind leg) with 7 × 10^6 freshly harvested PC-3 cells per animal, in PBS. After approximately four weeks solid tumors were present at the inoculation sites and the animals were randomly divided in groups of four.
For the ex vivo biodistribution experiments animals were injected via the tail vein with 50 pmol (120 kBq for Re-188 and 60 kBq for Tc-99 m) of the radiopeptide under evaluation, in 100 µl solution in PBS supplemented with 1% w/v BSA. Animals were euthanized at 1 h and 4 h post injection (pi) and tissues / organs of interest and tumors were collected, weighted and their radioactivity content was measured on a gamma counter. Each group comprised by four animals (n = 4).
Statistical analysis was performed using GraphPad Prism, employing a two-way ANOVA test with Tuckey’s posthoc analysis.

Turning to `CC(C)C[C@H](NC(=O)C[C@H](O)[C@H](CC(C)C)NC(=O)[C@H](Cc1c[nH]cn1)NC(=O)CNC(=O)[C@@H](NC(=O)[C@H](C)NC(=O)[C@H](Cc1c[nH]c2ccccc12)NC(=O)[C@H](CCC(N)=O)NC(=O)[C@@H](Cc1ccccc1)NC(=O)COCCOCCNC(=O)[C@H](CO)NC(=O)[C@H](CCC(=O)O)NC(=O)[C@H](CO)NC(=O)CS)C(C)C)C(N)=O` [maSES-PEG2-RM26, mercaptoacetyl-Ser-Glu-Ser-PEG2-RM26], the “ratio of activity uptake in caecum, Re-188 over Tc-99 m” value is 2.3 fold.

As for `CC(C)C[C@H](NC(=O)C[C@H](O)[C@H](CC(C)C)NC(=O)[C@H](Cc1c[nH]cn1)NC(=O)CNC(=O)[C@@H](NC(=O)[C@H](C)NC(=O)[C@H](Cc1c[nH]c2ccccc12)NC(=O)[C@H](CCC(N)=O)NC(=O)[C@@H](Cc1ccccc1)NC(=O)COCCOCCNC(=O)[C@H](CO)NC(=O)[C@H](CO)NC(=O)[C@H](CO)NC(=O)CS)C(C)C)C(N)=O` [maSSS-PEG2-RM26, mercaptoacetyl-Ser-Ser-Ser-PEG2-RM26], the “ratio of activity uptake in caecum, Re-188 over Tc-99 m” value worked out at 1.4 fold.
